From patent US9376429B2, “Sodium channel blockers, preparation method thereof and use thereof” (Daewoong Pharmaceutical Co., Ltd., priority 2012, dated 2016)

Assays:
[1] = target: T1, sodium ion channel (Nav1.7) (Homo sapiens, UniProt Q15858); assay: Blocking effect against sodium ion channel (Nav1.7), IonFlux16 auto patch clamp, hNav1.7 HEK293 cells; type: cell-based; conditions: peak current after 50 seconds treatment, eight concentrations
T1 construct: host or cells: HEK293
Summary of the method: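 HEK293 cells stably expressing human Nav1.7 were recorded by IonFlux16 automated patch clamp in extracellular solution (pH 7.45, final DMSO ≤0.3%). Peak current was measured after 50 s exposure to each of eight compound concentrations and expressed as percent inhibition relative to pre-compound current.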

[2] = neuropathic pain patients; cited from earlier work

T1 sequence (Q15858 whole entry): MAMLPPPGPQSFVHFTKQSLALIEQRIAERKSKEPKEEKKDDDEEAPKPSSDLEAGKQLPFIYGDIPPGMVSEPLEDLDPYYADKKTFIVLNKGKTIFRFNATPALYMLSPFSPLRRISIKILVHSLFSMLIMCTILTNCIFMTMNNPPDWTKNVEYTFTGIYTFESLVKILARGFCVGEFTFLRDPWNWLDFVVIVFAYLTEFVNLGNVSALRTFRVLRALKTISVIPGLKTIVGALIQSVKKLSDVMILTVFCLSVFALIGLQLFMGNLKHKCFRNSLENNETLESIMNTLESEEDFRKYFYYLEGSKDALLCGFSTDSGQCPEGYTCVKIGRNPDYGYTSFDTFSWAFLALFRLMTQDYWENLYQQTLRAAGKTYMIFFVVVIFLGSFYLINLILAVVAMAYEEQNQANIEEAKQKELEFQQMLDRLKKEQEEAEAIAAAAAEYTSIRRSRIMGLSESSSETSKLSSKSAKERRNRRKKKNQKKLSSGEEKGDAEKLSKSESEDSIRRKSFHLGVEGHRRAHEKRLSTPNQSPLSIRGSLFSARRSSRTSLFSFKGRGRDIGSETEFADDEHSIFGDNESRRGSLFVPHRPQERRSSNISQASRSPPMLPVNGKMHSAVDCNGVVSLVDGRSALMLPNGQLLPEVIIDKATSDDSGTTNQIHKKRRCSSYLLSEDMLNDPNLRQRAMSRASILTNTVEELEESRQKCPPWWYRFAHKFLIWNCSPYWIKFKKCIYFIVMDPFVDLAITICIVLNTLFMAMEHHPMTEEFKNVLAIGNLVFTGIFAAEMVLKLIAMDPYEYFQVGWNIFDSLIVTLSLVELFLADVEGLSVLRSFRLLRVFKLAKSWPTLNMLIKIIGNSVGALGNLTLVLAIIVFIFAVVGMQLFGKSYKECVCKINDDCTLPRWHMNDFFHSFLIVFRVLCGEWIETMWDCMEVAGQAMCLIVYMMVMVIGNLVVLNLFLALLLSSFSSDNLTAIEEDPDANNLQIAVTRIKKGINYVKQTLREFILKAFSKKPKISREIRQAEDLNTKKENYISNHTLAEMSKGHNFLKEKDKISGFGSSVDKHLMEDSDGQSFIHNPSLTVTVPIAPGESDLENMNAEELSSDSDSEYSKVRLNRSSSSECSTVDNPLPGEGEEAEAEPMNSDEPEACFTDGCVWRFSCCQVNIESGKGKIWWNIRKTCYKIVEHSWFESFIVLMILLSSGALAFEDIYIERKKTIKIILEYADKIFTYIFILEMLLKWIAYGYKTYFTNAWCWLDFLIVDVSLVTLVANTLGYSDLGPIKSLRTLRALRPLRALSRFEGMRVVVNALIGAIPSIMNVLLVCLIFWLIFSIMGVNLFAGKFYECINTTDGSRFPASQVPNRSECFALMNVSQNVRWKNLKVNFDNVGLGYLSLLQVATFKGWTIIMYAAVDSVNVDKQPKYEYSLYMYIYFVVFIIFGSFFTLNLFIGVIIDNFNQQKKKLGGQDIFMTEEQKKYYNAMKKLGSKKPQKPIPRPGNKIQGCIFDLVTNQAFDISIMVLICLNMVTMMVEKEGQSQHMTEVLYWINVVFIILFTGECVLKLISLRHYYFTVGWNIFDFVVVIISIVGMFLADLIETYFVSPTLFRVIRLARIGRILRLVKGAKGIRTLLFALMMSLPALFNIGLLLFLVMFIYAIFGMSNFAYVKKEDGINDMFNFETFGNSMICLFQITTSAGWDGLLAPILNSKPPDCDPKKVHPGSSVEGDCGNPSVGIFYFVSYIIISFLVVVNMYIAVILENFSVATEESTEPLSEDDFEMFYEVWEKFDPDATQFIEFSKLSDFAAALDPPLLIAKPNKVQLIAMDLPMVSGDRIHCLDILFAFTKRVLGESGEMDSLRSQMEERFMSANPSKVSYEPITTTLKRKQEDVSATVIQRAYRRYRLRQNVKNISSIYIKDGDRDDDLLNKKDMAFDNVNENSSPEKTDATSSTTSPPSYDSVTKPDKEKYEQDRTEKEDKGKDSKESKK

Compound	IC50 [1] [nM]	effective for share of the patients [2] [%]
Cn1nccc1-c1nc(-c2ccc(F)nc2F)ccc1Oc1cc(F)c(S(=O)(=O)Nc2cscn2)cc1Cl [Example 134, 5-chloro-4-((2′,6′-difluoro-6-(1-methyl-1H-pyrazol-5-yl)-[2,3′-bipyridin]-5-yl)oxy)-2-fluoro-N-(thiazol-4-yl)benzenesulfonamide]	> 100	–
Cn1nccc1-c1nc(-c2ccc(F)cc2)ccc1Oc1cc(F)c(S(=O)(=O)Nc2cscn2)cc1Cl [Example 135, 5-chloro-2-fluoro-4-((6-(4-fluorophenyl)-2-(1-methyl-1H-pyrazol-5-yl)pyridin-3-yl)oxy)-N-(thiazol-4-yl)benzenesulfonamide]	> 100	–
Cn1nccc1-c1nc(-c2ccccc2F)ccc1Oc1cc(F)c(S(=O)(=O)Nc2cscn2)cc1Cl [Example 136, 5-chloro-2-fluoro-4-((6-(2-fluorophenyl)-2-(1-methyl-1H-pyrazol-5-yl)pyridin-3-yl)oxy)-N-(thiazol-4-yl)benzenesulfonamide]	> 100	–
Cn1nccc1-c1nc(-c2ccc(F)nc2)ccc1Oc1cc(F)c(S(=O)(=O)Nc2cscn2)cc1Cl [Example 137, 5-chloro-2-fluoro-4-((6′-fluoro-6-(1-methyl-1H-pyrazol-5-yl)-[2,3′-bipyridin]-5-yl)oxy)-N-(thiazol-4-yl)benzenesulfonamide]	> 100	–
Cn1nccc1-c1cc(Cl)ccc1C(O)c1ccc(S(=O)(=O)Nc2nccs2)cc1 (stereo not shown) [Example 138, 4-((4-chloro-2-(1-methyl-1H-pyrazol-5-yl)phenyl)(hydroxy)methyl)-N-(thiazol-2-yl)benzenesulfonamide]	> 100	–
O=S(=O)(Nc1nccs1)c1ccc(C(O)c2ccc(Cl)cc2-c2cn[nH]c2)c(F)c1 (stereo not shown) [Example 139, 4-((4-chloro-2-(1H-pyrazol-4-yl)phenyl)(hydroxy)methyl)-3-fluoro-N-(thiazol-2-yl)benzenesulfonamide]	> 100	–
O=S(=O)(Nc1nccs1)c1ccc(C(O)c2ccc(Cl)cc2-c2ccoc2)c(F)c1 (stereo not shown) [Example 140, 4-((4-chloro-2-(furan-3-yl)phenyl)(hydroxy)methyl)-3-fluoro-N-(thiazol-2-yl)benzenesulfonamide]	> 100	–
O=S(=O)(Nc1nccs1)c1ccc(C(O)c2ccc(-c3ccoc3)cc2-c2ccoc2)c(F)c1 (stereo not shown) [Example 141, 4-((2,4-di(furan-3-yl)phenyl)(hydroxy)methyl)-3-fluoro-N-(thiazol-2-yl)benzenesulfonamide]	> 100	–
Cn1nccc1-c1ccccc1C(O)c1ccc(S(=O)(=O)Nc2nccs2)cc1F (stereo not shown) [Example 142, 3-fluoro-4-(hydroxy(2-(1-methyl-1H-pyrazol-5-yl)phenyl)methyl)-N-(thiazol-2-yl)benzenesulfonamide]	> 100	–
O=S(=O)(Nc1nccs1)c1ccc(C(O)c2ccc(Cl)cc2-c2ccoc2)cc1 (stereo not shown) [Example 143, 4-((4-chloro-2-(furan-3-yl)phenyl)(hydroxy)methyl)-N-(thiazol-2-yl)benzenesulfonamide]	< 50	–
Cn1nccc1-c1cc(Cl)ccc1C(O)c1ccc(S(=O)(=O)Nc2nccs2)cc1F (stereo not shown) [Example 144, 4-((4-chloro-2-(1-methyl-1H-pyrazol-5-yl)phenyl)(hydroxy)methyl)-3-fluoro-N-(thiazol-2-yl)benzenesulfonamide]	> 100	–
O=S(=O)(Nc1nccs1)c1ccc(C(O)c2ccc(Cl)cc2-c2cccnc2)c(F)c1 (stereo not shown) [Example 145, 4-((4-chloro-2-(pyridin-3-yl)phenyl)(hydroxy)methyl)-3-fluoro-N-(thiazol-2-yl)benzenesulfonamide]	> 100	–
O=S(=O)(Nc1nccs1)c1ccc(C(O)c2ccc(Cl)cc2-c2ccncc2)c(F)c1 (stereo not shown) [Example 146, 4-((4-chloro-2-(pyridin-4-yl)phenyl)(hydroxy)methyl)-3-fluoro-N-(thiazol-2-yl)benzenesulfonamide]	> 100	–
O=S(=O)(Nc1nccs1)c1ccc(C(O)c2ccc(Cl)cc2-c2ccncc2)cc1 (stereo not shown) [Example 147, 4-((4-chloro-2-(pyridin-4-yl)phenyl)(hydroxy)methyl)-N-(thiazol-2-yl)benzenesulfonamide]	> 100	–
O=S(=O)(Nc1nccs1)c1ccc(C(O)c2ccc(Cl)cc2-c2cccnc2)cc1 (stereo not shown) [Example 148, 4-((4-chloro-2-(pyridin-3-yl)phenyl)(hydroxy)methyl)-N-(thiazol-2-yl)benzenesulfonamide]	> 100	–
O=S(=O)(Nc1nccs1)c1ccc(C(O)c2ccc(-c3ccoc3)cc2-c2ccoc2)cc1 (stereo not shown) [Example 149, 4-((2,4-di(furan-3-yl)phenyl)(hydroxy)methyl)-N-(thiazol-2-yl)benzenesulfonamide]	> 100	–
O=S(=O)(Nc1nccs1)c1ccc(C(O)c2ccc(-c3cccnc3F)cc2-c2ccoc2)cc1 (stereo not shown) [Example 150, 4-((4-(2-fluoropyridin-3-yl)-2-(furan-3-yl)phenyl)(hydroxy)methyl)-N-(thiazol-2-yl)benzenesulfonamide]	> 100	–
O=S(=O)(Nc1nccs1)c1ccc(C(O)c2ccc(-c3ccc(F)nc3)cc2-c2ccoc2)cc1 (stereo not shown) [Example 151, 4-((4-(6-fluoropyridin-3-yl)-2-(furan-3-yl)phenyl)(hydroxy)methyl)-N-(thiazol-2-yl)benzenesulfonamide]	> 100	–
O=S(=O)(Nc1nccs1)c1ccc(C(O)c2ccc(-c3ccccc3F)cc2-c2ccoc2)cc1 (stereo not shown) [Example 152, 4-((2′-fluoro-3-(furan-3-yl)-[1,1′-biphenyl]-4-yl)(hydroxy)methyl)-N-(thiazol-2-yl)benzenesulfonamide]	> 100	–
O=S(=O)(Nc1nccs1)c1ccc(C(O)c2ccc(-c3cccc(F)c3)cc2-c2ccoc2)cc1 (stereo not shown) [Example 153, 4-((3′-fluoro-3-(furan-3-yl)-[1,1′-biphenyl]-4-yl)(hydroxy)methyl)-N-(thiazol-2-yl)benzenesulfonamide]	51 to 100	–
O=S(=O)(Nc1nccs1)c1ccc(C(O)c2ccc(-c3ccc(F)cc3)cc2-c2ccoc2)cc1 (stereo not shown) [Example 154, 4-((4′-fluoro-3-(furan-3-yl)-[1,1′-biphenyl]-4-yl)(hydroxy)methyl)-N-(thiazol-2-yl)benzenesulfonamide]	> 100	–
O=S(=O)(Nc1nccs1)c1ccc(C(O)c2cccnc2-c2ccoc2)c(F)c1 (stereo not shown) [Example 155, 3-fluoro-4-((2-(furan-3-yl)pyridin-3-yl)(hydroxy)methyl)-N-(thiazol-2-yl)benzenesulfonamide]	> 100	–
O=S(=O)(Nc1nccs1)c1ccc(C(O)c2cccnc2-c2ccoc2)cc1 (stereo not shown) [Example 156, 4-((2-(furan-3-yl)pyridin-3-yl)(hydroxy)methyl)-N-(thiazol-2-yl)benzenesulfonamide]	> 100	–
O=S(=O)(Nc1nccs1)c1ccc(C(O)c2cccnc2-c2ccccc2)c(F)c1 (stereo not shown) [Example 157, 3-fluoro-4-(hydroxy(2-phenylpyridin-3-yl)methyl)-N-(thiazol-2-yl)benzenesulfonamide]	> 100	–
NCC1(CC(=O)O)CCCCC1 [gabapentin]	–	60
